Like-named read-outs stand apart in the source and are kept apart here.
Tests used:
[1] = test system: influenza viruses; experiment: relative antiviral activity in vitro; type: cell-based; conditions: words
[2] = test system: Influenza A2 /Aichi/3/68; experiment: in vitro anti-myxovirus activity, influenza A2 /Aichi/3/68, G-2 cells (% inhibition of hemadsorption); type: cell-based, Influenza A2 /Aichi/3/68 (human); conditions: for inhibition at 40 µg/mL: 40 μg/ml; for inhibition at 30 µg/mL / inhibition at 50 µg/mL / inhibition at 60 µg/mL / inhibition at 70 µg/mL / inhibition at 80 µg/mL / inhibition at 90 µg/mL / inhibition at 100 µg/mL: Homo sapiens; for inhibition at 30 µg/mL: 30 μg/ml; for inhibition at 50 µg/mL: 50 μg/ml; for inhibition at 60 µg/mL: 60 μg/ml; for inhibition at 70 µg/mL: 70 μg/ml; for inhibition at 80 µg/mL: 80 μg/ml; for inhibition at 90 µg/mL: 90 μg/ml; for inhibition at 100 µg/mL: 100 μg/ml, read-out: % Inhibition
[3] = test system: Influenza (swine); experiment: cells; type: cell-based
[4] = cytotoxicity in G-2 cells; type: cell-based; conditions: human
Protocol: In preparing the compounds for testing, they were handled aseptically throughout. The compounds were dissolved in a minimum amount of a suitable solvent and the final dilutions were made up to the required volume in a complete culture medium used in assay and in concentration not exceeding the predetermined maximum non-toxic levels.
The cell culture used in all primary in vitro anti-myxovirus assays was an established cell line of the human conjunctiva (G-2 cells). The cytotoxic studies of each of the compounds were performed prior to testing for antiviral activity to determine level of response of the cells to the potentially toxic action of the compounds.

[5] = test system: influenza A2 virus Aichi/2/68; experiment: preventive control of influenza A2 in mice, compound I at different levels; type: in vivo, influenza A2 virus Aichi/2/68 (in Charles River white mice)
Protocol: In the following experiment, compound I was tested at different levels for preventive control of influenza as follows:
Charles River white mice, starting weight: 10-12 g;
12 mice per group (24 mice as control).
Virus: Mice were inoculated intranasally with influenza
A2 virus Aichi/2/68, with a titer of 2,88 LD50,
Mice were divided into 5 groups and received
day intraperitoneally, once a day for 16 days
beginning one day prior to infection with the
virus. Mice were weighed each day before inocula-
tions and doses adjusted according to the actual
weight of each animal. The active compound was
suspended in phosphate buffered saline.

[6] = toxicity of in vitro active anti-myxovirus compounds in mice; conditions: mouse, in vivo
[7] = test system: mice; experiment: as above
[8] = 100 mg/kg, day 10 postinfection
[9] = 100 mg/kg, day 11 postinfection
[10] = 100 mg/kg, day 12 postinfection
[11] = 100 mg/kg, day 13 postinfection
[12] = 100 mg/kg, day 14 postinfection

With C[C@@H]1[C@H](N)[C@H]2C[C@@H]1c1ccccc12 (relative stereo) [IV, 1,2,3,4-tetrahydro-1,4-methanonaphthalen-endo-3-methyl-endo-2-amine] the relative antiviral activity [1] was “relatively low antiviral activity”.

Work on N[C@H]1C[C@@H]2C[C@H]1c1ccccc12 (relative stereo) [Compound I] yielded an inhibition at 40 µg/mL ([2]; 17.8 TCID50) of 13%, an inhibition at 40 µg/mL ([2]; 178 TCID50) of 0% and an inhibition at 30 µg/mL ([2]; 17.8 TCID50) of 0%. The inhibition at 30 µg/mL ([2]; 178 TCID50) was 0%, the inhibition at 50 µg/mL ([2]; 17.8 TCID50) was 30% and the inhibition at 50 µg/mL ([2]; 178 TCID50) was 10%. For the same molecule, the inhibition at 60 µg/mL ([2]; 17.8 TCID50) was 87%, the inhibition at 60 µg/mL ([2]; 178 TCID50) was 37% and the inhibition at 70 µg/mL ([2]; 17.8 TCID50) was 90%. For the same molecule, the inhibition at 70 µg/mL ([2]; 178 TCID50) was 53%, the inhibition at 80 µg/mL ([2]; 17.8 TCID50) was 97% and the inhibition at 80 µg/mL ([2]; 178 TCID50) was 77%. For the same molecule, the inhibition at 90 µg/mL ([2]; 17.8 TCID50) was 97%, the inhibition at 90 µg/mL ([2]; 178 TCID50) was 80% and the inhibition at 100 µg/mL ([2]; 17.8 TCID50) was 97%. For the same molecule, the inhibition at 100 µg/mL ([2]; 178 TCID50) was 90%, the inhibition at 40 µg/mL ([3]; 40 μg/ml) was 0% and the “% Inhibition” value ([3]; 50 μg/ml, listed as 1,2,3,4-TETRAHYDRO-1,4-[…]-ENDO-2-AMINE.HCl) was 7%. It also gave an inhibition at 80 µg/mL ([3]; 80 μg/ml) of 90%, an inhibition at 90 µg/mL ([3]; 90 μg/ml) of 97% and an inhibition at 100 µg/mL ([3]; 100 μg/ml) of 100%. The CC50 ([4]; 50% inhibition of cell growth, read-out: Cytotoxicity CTD50) was over 100 µg/mL, the MNTC ([4]; maximal non-toxic concentration, read-out: Cytotoxicity CTD0) was over 100 µg/mL and the Survivors % ([5]; 40 mg/kg) was 8.3%. For the same molecule, the “Survivors S/T” value ([5]; 40 mg/kg) was 1/12, the Cumulative mortality % ([5]; 40 mg/kg, day 8 postinfection) was 8.3% and the “Cumulative mortality N” value ([5]; 40 mg/kg, day 8 postinfection) was 1. The Cumulative mortality % ([5]; 40 mg/kg, day 9 postinfection) was 41.7%, the “Cumulative mortality N” value ([5]; 40 mg/kg, day 9 postinfection) was 5 and the Cumulative mortality % ([5]; 40 mg/kg, day 10 postinfection) was 58.3%. For the same molecule, the “Cumulative mortality N” value ([5]; 40 mg/kg, day 10 postinfection) was 7, the Cumulative mortality % ([5]; 40 mg/kg, day 11 postinfection) was 75.0% and the “Cumulative mortality N” value ([5]; 40 mg/kg, day 11 postinfection) was 9. The Cumulative mortality % ([5]; 40 mg/kg, day 12 postinfection) was 83.3%, the “Cumulative mortality N” value ([5]; 40 mg/kg, day 12 postinfection) was 10 and the Cumulative mortality % ([5]; 40 mg/kg, day 13 postinfection) was 91.6%. For the same molecule, the “Cumulative mortality N” value ([5]; 40 mg/kg, day 13 postinfection) was 11, the Cumulative mortality % ([5]; 40 mg/kg, day 14 postinfection) was 91.6% and the “Cumulative mortality N” value ([5]; 40 mg/kg, day 14 postinfection) was 11. The Survivors % ([5]; 55 mg/kg) was 8.3%, the “Survivors S/T” value ([5]; 55 mg/kg) was 1/12 and the Cumulative mortality % ([5]; 55 mg/kg, day 8 postinfection) was 8.3%. The “Cumulative mortality N” value ([5]; 55 mg/kg, day 8 postinfection) was 1, the Cumulative mortality % ([5]; 55 mg/kg, day 9 postinfection) was 16.7% and the “Cumulative mortality N” value ([5]; 55 mg/kg, day 9 postinfection) was 2. The Cumulative mortality % ([5]; 55 mg/kg, day 10 postinfection) was 41.7%, the “Cumulative mortality N” value ([5]; 55 mg/kg, day 10 postinfection) was 5 and the Cumulative mortality % ([5]; 55 mg/kg, day 11 postinfection) was 58.3%. The “Cumulative mortality N” value ([5]; 55 mg/kg, day 11 postinfection) was 7, the Cumulative mortality % ([5]; 55 mg/kg, day 12 postinfection) was 75.0% and the “Cumulative mortality N” value ([5]; 55 mg/kg, day 12 postinfection) was 9. The Cumulative mortality % ([5]; 55 mg/kg, day 13 postinfection) was 91.6%, the “Cumulative mortality N” value ([5]; 55 mg/kg, day 13 postinfection) was 11 and the Cumulative mortality % ([5]; 55 mg/kg, day 14 postinfection) was 91.6%. The “Cumulative mortality N” value ([5]; 55 mg/kg, day 14 postinfection) was 11, the Survivors % ([5]; 70 mg/kg) was 50.0% and the “Survivors S/T” value ([5]; 70 mg/kg) was 6/12. The Cumulative mortality % ([5]; 70 mg/kg, day 8 postinfection) was 8.3%, the “Cumulative mortality N” value ([5]; 70 mg/kg, day 8 postinfection) was 1 and the Cumulative mortality % ([5]; 70 mg/kg, day 9 postinfection) was 8.3%. The “Cumulative mortality N” value ([5]; 70 mg/kg, day 9 postinfection) was 1, the Cumulative mortality % ([5]; 70 mg/kg, day 10 postinfection) was 41.7% and the “Cumulative mortality N” value ([5]; 70 mg/kg, day 10 postinfection) was 5. For the same molecule, the Cumulative mortality % ([5]; 70 mg/kg, day 11 postinfection) was 50.0%, the “Cumulative mortality N” value ([5]; 70 mg/kg, day 11 postinfection) was 6 and the Cumulative mortality % ([5]; 70 mg/kg, day 12 postinfection) was 50.0%. The “Cumulative mortality N” value ([5]; 70 mg/kg, day 12 postinfection) was 6, the Cumulative mortality % ([5]; 70 mg/kg, day 13 postinfection) was 50.0% and the “Cumulative mortality N” value ([5]; 70 mg/kg, day 13 postinfection) was 6. For the same molecule, the Cumulative mortality % ([5]; 70 mg/kg, day 14 postinfection) was 50.0%, the “Cumulative mortality N” value ([5]; 70 mg/kg, day 14 postinfection) was 6 and the Survivors % ([5]; 85 mg/kg) was 50.0%. For the same molecule, the “Survivors S/T” value ([5]; 85 mg/kg) was 6/12, the Cumulative mortality % ([5]; 85 mg/kg, day 8 postinfection) was 0% and the “Cumulative mortality N” value ([5]; 85 mg/kg, day 8 postinfection) was 0. For the same molecule, the Cumulative mortality % ([5]; 85 mg/kg, day 9 postinfection) was 8.3%, the “Cumulative mortality N” value ([5]; 85 mg/kg, day 9 postinfection) was 1 and the Cumulative mortality % ([5]; 85 mg/kg, day 10 postinfection) was 25.0%. The “Cumulative mortality N” value ([5]; 85 mg/kg, day 10 postinfection) was 3, the Cumulative mortality % ([5]; 85 mg/kg, day 11 postinfection) was 33.3% and the “Cumulative mortality N” value ([5]; 85 mg/kg, day 11 postinfection) was 4. For the same molecule, the Cumulative mortality % ([5]; 85 mg/kg, day 12 postinfection) was 50.0%, the “Cumulative mortality N” value ([5]; 85 mg/kg, day 12 postinfection) was 6 and the Cumulative mortality % ([5]; 85 mg/kg, day 13 postinfection) was 50.0%. The “Cumulative mortality N” value ([5]; 85 mg/kg, day 13 postinfection) was 6, the Cumulative mortality % ([5]; 85 mg/kg, day 14 postinfection) was 50.0% and the “Cumulative mortality N” value ([5]; 85 mg/kg, day 14 postinfection) was 6. For the same molecule, the Survivors % ([5]; 100 mg/kg) was 66.4%, the “Survivors S/T” value ([5]; 100 mg/kg) was 8/12 and the Cumulative mortality % ([5]; 100 mg/kg, day 8 postinfection) was 0%. For the same molecule, the “Cumulative mortality N” value ([5]; 100 mg/kg, day 8 postinfection) was 0, the Cumulative mortality % ([5]; 100 mg/kg, day 9 postinfection) was 0% and the “Cumulative mortality N” value ([5]; 100 mg/kg, day 9 postinfection) was 0. The Cumulative mortality % [5, 8] was 16.7%, the “Cumulative mortality N” value [5, 8] was 2 and the Cumulative mortality % [5, 9] was 25.0%. For the same molecule, the “Cumulative mortality N” value [5, 9] was 3, the Cumulative mortality % [5, 10] was 33.3% and the “Cumulative mortality N” value [5, 10] was 4. For the same molecule, the Cumulative mortality % [5, 11] was 33.3%, the “Cumulative mortality N” value [5, 11] was 4 and the Cumulative mortality % [5, 12] was 33.3%. The “Cumulative mortality N” value [5, 12] was 4, the MTD [6] was at most 100 mg/kg and the LD50 ([6]; ip, 50% toxic dose LD50, acute, I/P, acute) was 100 mg/kg. The LD50 ([6]; ip, 50% toxic dose LD50, subacute, I/P, subacute) was 100 mg/kg, the LD50 ([6]; po, 50% toxic dose LD50, acute, P/O, acute) was 275 mg/kg and the LD50 ([6]; po, 50% toxic dose LD50, subacute, P/O, subacute) was 250 to 275 mg/kg. For the same molecule, the “Maximal non-toxic dose LD0, acute” value ([7]; I/P) was 125 mg/kg, the “Maximal non-toxic dose LD0, subacute” value ([7]; I/P) was 100 mg/kg and the “Maximal non-toxic dose LD0, acute” value ([7]; P/O) was 250 mg/kg. For the same molecule, the “Maximal non-toxic dose LD0, subacute” value ([7]; P/O) was 225 mg/kg.
